Test results: patent US11357742B2, “Methods for treating cancer” (X4 Pharmaceuticals, Inc., priority 2015, dated 2022)

Legend:
[1] = test system: renal cell carcinoma (RCC) xenografts; conditions: cited from earlier work
[2] = test system: 786-0 and A498 RCC xenografts; assay: Murine models with human RCC cell line xenografts (tumor size, IHC, IF, flow cytometry); type: in vivo, mice; conditions: 786-0 and A498 xenografts
Description: With each of the human cell lines, 1×10^7 tumor cells were implanted subcutaneously in the flanks of 36 nude/beige mice and tumors allowed to grow to roughly 7 mm in diameter. […] Therefore, on day 7, the mice were sacrificed and the tumors were measured and immediately excised and divided into three parts. One part of each tumor was paraffin-embedded for dual color immunofluorescence. Another part was mechanically disaggregated and treated with collagenase/DNAse to generate a single cell suspension for flow cytometry. The third part was frozen for future pharmacokinetic analysis. Microscope slides were made from the paraffin-embedded tumor tissue, which were stained with antibodies against CD11b, Gr-1, and FAP. The number of infiltrating CD11b+/Gr-1+ MDSC and FAP+ fibroblasts present in the tumor tissue was then determined by immunofluorescence (IF) as previously described (1).
The disaggregated tumor specimens were analyzed for CD11b+/Gr-1+ MDSC and FAP+ fibroblasts by flow cytometry. The fraction of both populations expressing CXCR4 were also determined. […] One part was disaggregated into single cell suspensions and analyzed by flow cytometry as above for MDSC. […] Finally, a bone marrow (BM) sample was generated by extruding marrow from an excised femur with a syringe filled with saline and analyzed by flow cytometry for MDSC.

[3] = oral; see current product label; cited from earlier work
mir-30a and mir-30c = conditions: 786-0 xenograft tumor, after 8 days of treatment
Description: Data is presented as mir-30a or mir-30c expression relative to the mean control value (left side) and relative HIF-2α RNA expression.

[4] = cited from earlier work
[5] = concurrent administration with sunitinib

Question: Which “development of sunitinib resistance” value [1, 5] does the source give for `CC(C)(C)C[C@H]1N[C@@H](C(=O)NCC[C@H](O)CO)[C@H](c2ccc(F)c(Cl)c2)[C@@]12C(=O)Nc1cc(Cl)c(F)cc12` [MI-319] here?
Answer: prevented

Question: What about the “influx of MDSC” value [1, 5] of the same compound?
Answer: prevented

Question: And the HIF-2 expression ([1]; in vivo)?
Answer: suppresses

Question: Which “effects on tumor growth” value ([2]; nude/beige mice, day 7, axitinib 30 mg/kg daily by gavage) does the source give for `CNC(=O)c1ccccc1Sc1ccc2c(/C=C/c3ccccn3)n[nH]c2c1` [axitinib, N-methyl-2-[3-((E)-2-pyridin-2-yl-vinyl)-1H-indazol-6-ylsulfanyl]-benzamide] here?
Answer: no

Question: What about the “MDSC infiltration of tumors” value ([2]; CD11b+/Gr-1+ cells) of the same compound?
Answer: extensive MDSC infiltration

Question: And the “effect of food on absorption” value [3]?
Answer: not altered by food

Question: And the “mir-30a and mir-30c expression” value (mir-30a and mir-30c)?
Answer: suppressed

Question: And the “partition coefficient (n-octanol/water)” value [4]?
Answer: 3.5
